# From patent US20240383900A1, “SUBSTITUTED PYRAZOLO [1,5-A]PYRIMIDINE-7-AMINE COMPOUNDS AS CDK INHIBITORS AND THEIR THERAPEUTIC USE” (Carrick Therapeutics Limited, priority 2021, published 2024)
# Read-outs that look alike come from different tables or passages of the source.
# Legend:
# Human CDK12 wt/CycK = Human CDK12 wt/CycK (Homo sapiens (Human), UniProt Q9NYV4); experiment: Radiometric protein kinase assay (33PanQinase Activity Assay), CDK12; format: biochemical; conditions: for CDK7/CDK12: ratio of CDK7 IC50 to CDK12 IC50, greater than 1 indicates selectivity for CDK12
# Human CDK12 wt/CycK, sequence (Q9NYV4 whole entry): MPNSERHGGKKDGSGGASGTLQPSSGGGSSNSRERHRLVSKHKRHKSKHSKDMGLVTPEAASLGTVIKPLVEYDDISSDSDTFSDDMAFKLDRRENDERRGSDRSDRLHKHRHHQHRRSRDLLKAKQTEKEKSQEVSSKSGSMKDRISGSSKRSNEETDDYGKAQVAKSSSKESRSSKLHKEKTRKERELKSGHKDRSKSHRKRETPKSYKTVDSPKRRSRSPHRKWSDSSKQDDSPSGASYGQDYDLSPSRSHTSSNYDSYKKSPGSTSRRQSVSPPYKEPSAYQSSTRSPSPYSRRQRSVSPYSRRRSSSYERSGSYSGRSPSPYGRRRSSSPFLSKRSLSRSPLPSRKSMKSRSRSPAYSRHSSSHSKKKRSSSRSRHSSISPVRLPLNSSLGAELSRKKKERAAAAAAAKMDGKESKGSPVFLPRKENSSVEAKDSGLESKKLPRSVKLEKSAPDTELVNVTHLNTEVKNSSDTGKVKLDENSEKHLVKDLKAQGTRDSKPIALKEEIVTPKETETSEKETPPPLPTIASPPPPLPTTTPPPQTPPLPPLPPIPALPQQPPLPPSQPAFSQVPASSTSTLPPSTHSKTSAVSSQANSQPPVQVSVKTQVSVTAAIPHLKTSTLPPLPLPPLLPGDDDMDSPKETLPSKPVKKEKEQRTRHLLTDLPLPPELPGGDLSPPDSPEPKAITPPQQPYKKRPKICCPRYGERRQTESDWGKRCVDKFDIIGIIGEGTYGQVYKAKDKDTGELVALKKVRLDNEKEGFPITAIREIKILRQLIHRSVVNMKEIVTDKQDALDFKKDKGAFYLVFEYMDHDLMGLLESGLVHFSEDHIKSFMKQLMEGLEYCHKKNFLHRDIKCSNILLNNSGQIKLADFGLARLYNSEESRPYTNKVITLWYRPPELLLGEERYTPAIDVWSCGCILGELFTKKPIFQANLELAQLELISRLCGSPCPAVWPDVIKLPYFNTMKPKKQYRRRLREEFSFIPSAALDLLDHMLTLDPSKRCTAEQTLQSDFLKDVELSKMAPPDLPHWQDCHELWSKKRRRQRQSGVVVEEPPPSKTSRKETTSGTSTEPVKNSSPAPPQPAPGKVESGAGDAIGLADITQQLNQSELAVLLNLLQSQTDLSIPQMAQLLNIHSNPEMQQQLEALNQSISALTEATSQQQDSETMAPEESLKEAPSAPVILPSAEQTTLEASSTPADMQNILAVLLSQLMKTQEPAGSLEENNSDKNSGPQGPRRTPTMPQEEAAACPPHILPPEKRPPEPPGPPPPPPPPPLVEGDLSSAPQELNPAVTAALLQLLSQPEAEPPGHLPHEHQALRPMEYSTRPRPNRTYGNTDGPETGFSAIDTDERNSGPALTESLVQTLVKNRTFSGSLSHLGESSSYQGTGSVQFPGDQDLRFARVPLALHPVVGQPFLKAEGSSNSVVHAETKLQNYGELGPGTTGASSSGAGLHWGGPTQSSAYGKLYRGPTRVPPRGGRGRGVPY
# Human CDK12 wt/CycK, sequence (O75909 whole entry partner): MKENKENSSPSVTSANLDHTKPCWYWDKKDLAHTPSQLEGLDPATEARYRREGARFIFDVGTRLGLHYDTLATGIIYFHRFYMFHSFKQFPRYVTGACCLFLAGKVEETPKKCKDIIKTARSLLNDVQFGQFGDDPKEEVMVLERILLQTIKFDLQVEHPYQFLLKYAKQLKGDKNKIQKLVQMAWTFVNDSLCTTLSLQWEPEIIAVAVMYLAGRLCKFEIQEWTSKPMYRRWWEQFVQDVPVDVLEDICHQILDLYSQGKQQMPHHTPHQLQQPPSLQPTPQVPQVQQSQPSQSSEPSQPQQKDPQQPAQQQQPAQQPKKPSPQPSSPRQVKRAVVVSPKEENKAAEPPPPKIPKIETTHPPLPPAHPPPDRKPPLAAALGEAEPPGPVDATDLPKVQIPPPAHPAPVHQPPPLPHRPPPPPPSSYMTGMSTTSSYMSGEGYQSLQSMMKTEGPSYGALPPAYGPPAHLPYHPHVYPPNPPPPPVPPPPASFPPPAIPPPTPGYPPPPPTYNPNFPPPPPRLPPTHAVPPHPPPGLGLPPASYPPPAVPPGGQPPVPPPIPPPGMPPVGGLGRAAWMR
# Outline: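 Radiometric 33P assay: ATP, test compound (in 10% DMSO) and premixed substrate/enzyme incubated 60 min at 30 °C, stopped with 2% H3PO4. 33Pi incorporation counted by scintillation; least-squares curve fit.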
# A673 cells [1] = experiment: A673 cytotoxic potency shift in the presence of MLN4924 (cyclin K degrader activity); format: cell-based; conditions: 30 nM MLN4924, 72 hours
# Experimental: Inhibition of cell viability by test compounds was assessed in A673 cells (ATCC CRL-1598) and the compound mode of action was attributed to a “molecular-glue”/cyclin K-degradation mechanism by probing for a loss of compound potency in the presence of the NEDD8-activating enzyme inhibitor, MLN4924.
# Cells were plated in 96-well plates at a density of […] viable cells per well in 200 μL fully supplemented growth medium (DMEM+10% heat inactivated foetal bovine serum) and incubated for 24 hours in standard tissue culture conditions. Compounds, including MLN4924, were solubilised in DMSO and then diluted in fully supplemented growth medium at 2× their final assay concentration such that the final DMSO concentration was 0.1%. Growth medium in the assay plates was replaced with 50 μL of growth medium containing 2×MLN4924 (final assay concentration: 30 nM, where tested) or vehicle only and 50 μL of growth medium containing a 2× compound concentration series or vehicle only such that each compound was at 1× final assay concentration in 100 μL.
# Cells were then incubated for 72 hours in standard tissue culture conditions before viability was assessed using 50 μL Cell Titer Glo reagent (Promega) per well and luminescence measured on an EnVision plate reader. Data were normalised to vehicle control (100%) and cells treated with 0.1% Triton x-100 for 1 hour before viability measurement (0%; full cell kill). IC50 values were determined using a semi-logistic curve fit with parameters “top” fixed at 100% and “bottom” at or below 0%. Viability curves generated in the presence of MLN4924 were normalised and fixed to controls treated with MLN4924.
# A673 cells [2] = experiment: Cytotoxicity in A673 cells (Cell Titer Glo viability); format: cell-based; conditions: for Ratio of Biochemical Potency:Cellular Potency: CDK12 IC50 / A673 IC50; for IC50: Homo sapiens
# Outline: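 Cells plated at 1.2×10^5 per well in DMEM+10% FBS, 24 h, then compound series ± MLN4924 (30 nM final) in 0.1% DMSO for 72 h. Viability by Cell Titer Glo luminescence, normalised to vehicle (100%) and 0.1% Triton x-100 (0%); MLN4924 curves normalised to MLN4924-treated controls.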
# Human CDK7/CycH/MAT1 = Human CDK7/CycH/MAT1 (Homo sapiens (Human), UniProt P50613); experiment: Radiometric protein kinase assay (33PanQinase Activity Assay), CDK7; format: biochemical; conditions: ATP 3 μM
# Human CDK7/CycH/MAT1, sequence (P50613 whole entry): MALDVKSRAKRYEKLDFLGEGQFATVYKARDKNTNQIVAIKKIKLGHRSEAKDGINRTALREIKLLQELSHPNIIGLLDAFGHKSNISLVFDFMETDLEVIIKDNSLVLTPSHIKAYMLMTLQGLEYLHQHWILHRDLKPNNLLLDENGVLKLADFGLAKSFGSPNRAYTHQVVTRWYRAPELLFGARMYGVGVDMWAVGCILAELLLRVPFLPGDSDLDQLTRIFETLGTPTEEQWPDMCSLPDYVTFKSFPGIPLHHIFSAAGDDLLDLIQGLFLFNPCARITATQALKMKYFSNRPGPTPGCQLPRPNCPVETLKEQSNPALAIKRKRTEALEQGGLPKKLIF
# Human CDK7/CycH/MAT1, sequence (P51946 whole entry partner): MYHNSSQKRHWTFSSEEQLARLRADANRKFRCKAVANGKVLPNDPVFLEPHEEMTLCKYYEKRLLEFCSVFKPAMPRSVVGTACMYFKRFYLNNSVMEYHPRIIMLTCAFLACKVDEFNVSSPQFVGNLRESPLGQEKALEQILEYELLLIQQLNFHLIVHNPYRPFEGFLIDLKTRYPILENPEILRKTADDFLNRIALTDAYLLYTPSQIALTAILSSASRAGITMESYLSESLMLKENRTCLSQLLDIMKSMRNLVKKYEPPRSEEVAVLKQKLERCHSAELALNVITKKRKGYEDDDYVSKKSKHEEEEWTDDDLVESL
# Human CDK7/CycH/MAT1, sequence (P51948 whole entry partner): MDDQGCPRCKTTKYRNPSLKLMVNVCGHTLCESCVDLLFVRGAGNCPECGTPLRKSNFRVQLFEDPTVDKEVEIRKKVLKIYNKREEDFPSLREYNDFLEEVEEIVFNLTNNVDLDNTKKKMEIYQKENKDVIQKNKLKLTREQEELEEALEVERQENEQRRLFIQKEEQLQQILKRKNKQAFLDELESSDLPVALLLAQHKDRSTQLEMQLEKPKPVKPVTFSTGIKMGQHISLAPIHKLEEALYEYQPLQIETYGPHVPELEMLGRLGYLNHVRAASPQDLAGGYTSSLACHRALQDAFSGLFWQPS
# [3] = ATP 0.3 μM, read-out: CDK12 IC50
# [4] = read-out: CKD12 Biochemical Potency IC50
# [5] = A673, read-out: Cellular Potency IC50 (nM) (in A673 cells)
# [6] = A673 cells, 72 hours, read-out: A673 IC50
IC50 (Human CDK12 wt/CycK; [3]),CDK7/CDK12 (Human CDK12 wt/CycK),IC50 (Human CDK12 wt/CycK; [4]),IC50 (Human CDK7/CycH/MAT1),SMILES,Cyclin K Degrader Activity (A673 potency shift + MLN4924) (A673 cells [1]),Ratio of Biochemical Potency:Cellular Potency (A673 cells [2]),IC50 (A673 cells [2]; [5]),IC50 (A673 cells [2]; [6])
31 nM,28.8,31 nM,892 nM,c1ccc(-c2ccc(CNc3cc(NC4CNC4)nc4c(C5CC5)cnn34)cc2)nc1 [PPA-047],++ (>2 and ≤5 fold change.),1.79,17.3 nM,17.3 nM
32 nM,30.7,32 nM,982 nM,c1ccc(-c2ccc(CNc3cc(OC4CNC4)nc4c(C5CC5)cnn34)cc2)nc1 [PPA-049],+++ (>5 fold change.),4.64,6.9 nM,6.9 nM
134 nM,17.8,134 nM,2390 nM,c1ccc(-c2ccc(CNc3cc(OCC4CNC4)nc4c(C5CC5)cnn34)cc2)nc1 [PPA-055],++ (>2 and ≤5 fold change.),5.38,24.9 nM,24.9 nM
204 nM,25.8,204 nM,5260 nM,c1ccc(-c2ccc(CNc3cc(C4CNC4)nc4c(C5CC5)cnn34)cc2)nc1 [PPA-058],+++ (>5 fold change.),29.57,6.9 nM,6.9 nM
158 nM,4.0,158 nM,637 nM,O[C@H]1CNCC[C@@H]1CNc1cc(NCc2ccc(-c3ccccc3)cc2)n2ncc(C3CC3)c2n1 [PPA-059],+++ (>5 fold change.),12.54,12.6 nM,12.6 nM
77 nM,37.3,77 nM,2870 nM,c1ccc(-c2ccc(CNc3cc(O[C@@H]4CCNC4)nc4c(C5CC5)cnn34)cc2)nc1 [PPA-060],+++ (>5 fold change.),26.55,2.9 nM,2.9 nM
18 nM,14.9,18 nM,268 nM,c1ccc(-c2ccc(CNc3cc(O[C@H]4CCCNC4)nc4c(C5CC5)cnn34)cc2)nc1 [PPA-064],+++ (>5 fold change.),15.00,1.2 nM,1.2 nM
29 nM,9.8,29 nM,284 nM,c1ccc(-c2ccc(CNc3cc(O[C@H]4CCNC4)nc4c(C5CC5)cnn34)cc2)nc1 [PPA-065],+++ (>5 fold change.),9.06,3.2 nM,3.2 nM
122 nM,2.2,122 nM,267 nM,CCc1cnn2c(NCc3ccc(-c4ccccc4)cc3F)cc(NC[C@H]3CCNC[C@@H]3O)nc12 [PPA-069],++ (>2 and ≤5 fold change.),11.62,10.5 nM,10.5 nM
107 nM,5.3,107 nM,562 nM,N#Cc1cnn2c(NCc3ccc(-c4ccccc4)cc3F)cc(NC[C@H]3CCNC[C@@H]3O)nc12 [PPA-070],+++ (>5 fold change.),20.19,5.3 nM,5.3 nM
40 nM,38.8,40 nM,1550 nM,N#Cc1cnn2c(NCc3ccc(-c4ccccc4)cc3F)cc(N[C@H]3CCNC3)nc12 [PPA-071],+++ (>5 fold change.),28.57,1.4 nM,1.4 nM
34 nM,29.4,34 nM,1000 nM,Fc1cc(-c2ccccn2)ccc1CNc1cc(N[C@H]2CCNC2)nc2c(C3CC3)cnn12 [PPA-072],+++ (>5 fold change.),42.50,0.8 nM,0.8 nM
23 nM,29.3,23 nM,675 nM,N#Cc1cnn2c(NCc3ccc(-c4ccccc4)cc3)cc(N[C@H]3CCNC3)nc12 [PPA-085],++ (>2 and ≤5 fold change.),17.69,1.3 nM,1.3 nM
11 nM,37.9,11 nM,417 nM,N#Cc1cnn2c(NCc3ccc(-c4ccccn4)cc3)cc(N[C@H]3CCNC3)nc12 [PPA-086],+++ (>5 fold change.),12.22,0.9 nM,0.9 nM
503 nM,3.2,503 nM,1630 nM,CO[C@H]1CNCC[C@@H]1CNc1cc(NCc2ccc(-c3ccccn3)cc2)n2ncc(C3CC3)c2n1 [PPA-087],+++ (>5 fold change.),57.82,8.7 nM,8.7 nM
60 nM,12.7,60 nM,762 nM,C1=C(c2cc(NCc3ccc(-c4ccccn4)cc3)n3ncc(C4CC4)c3n2)CNCC1 [PPA-088],+++ (>5 fold change.),24.00,2.5 nM,2.5 nM
28 nM,9.8,28 nM,274 nM,c1cnc(-c2ccc(CNc3cc(N[C@H]4CCCNC4)nc4c(C5CC5)cnn34)cc2)nc1 [PPA-089],+++ (>5 fold change.),14.74,1.9 nM,3.4 nM
23 nM,18.2,23 nM,418 nM,c1cnc(-c2ccc(CNc3cc(N[C@H]4CCNC4)nc4c(C5CC5)cnn34)cc2)nc1 [PPA-090],+++ (>5 fold change.),4.89,4.7 nM,5.2 nM
382 nM,8.0,382 nM,3070 nM,c1cnn(-c2ccc(CNc3cc(N[C@H]4CCNC4)nc4c(C5CC5)cnn34)cc2)c1 [PPA-091],+++ (>5 fold change.),50.26,7.6 nM,10.3 nM
13 nM,18.1,13 nM,235 nM,N#Cc1cnn2c(NCc3ccc(-c4ccccn4)cc3)cc(N[C@H]3CCCNC3)nc12 [PPA-092],+++ (>5 fold change.),32.50,0.4 nM,1 nM
31 nM,7.2,31 nM,222 nM,Clc1cnn2c(NCc3ccc(-c4ccccn4)cc3)cc(N[C@H]3CCCNC3)nc12 [PPA-093],++ (>2 and ≤5 fold change.),9.69,3.2 nM,1.7 nM

SMILES,IC50 (Human CDK12 wt/CycK; [3]),CDK7/CDK12 (Human CDK12 wt/CycK),IC50 (Human CDK12 wt/CycK; [4]),IC50 (Human CDK7/CycH/MAT1),Cyclin K Degrader Activity (A673 potency shift + MLN4924) (A673 cells [1]),Ratio of Biochemical Potency:Cellular Potency (A673 cells [2]),IC50 (A673 cells [2]; [5]),IC50 (A673 cells [2]; [6])
c1ccc(-c2ccc(CNc3cc(N4CC5CC(C4)N5)nc4c(C5CC5)cnn34)cc2)nc1 [PPA-080],152 nM,8.0,152 nM,1210 nM,+++ (>5 fold change.),12.06,12.6 nM,12.6 nM
